Assay results: PMC6941952, “A homogeneous bioluminescent immunoassay to probe cellular signaling pathway regulation” (Communications Biology, 2020)
Where “and” joins values, the source holds several entries; their conditions need not be identical. Equal entries are not always repeated. Where two headings read alike, the source gives them in different places.

Biological target: T1, estrogen receptors (ER) (Homo sapiens, UniProt P03372)
T1 sequence (P03372 1-595): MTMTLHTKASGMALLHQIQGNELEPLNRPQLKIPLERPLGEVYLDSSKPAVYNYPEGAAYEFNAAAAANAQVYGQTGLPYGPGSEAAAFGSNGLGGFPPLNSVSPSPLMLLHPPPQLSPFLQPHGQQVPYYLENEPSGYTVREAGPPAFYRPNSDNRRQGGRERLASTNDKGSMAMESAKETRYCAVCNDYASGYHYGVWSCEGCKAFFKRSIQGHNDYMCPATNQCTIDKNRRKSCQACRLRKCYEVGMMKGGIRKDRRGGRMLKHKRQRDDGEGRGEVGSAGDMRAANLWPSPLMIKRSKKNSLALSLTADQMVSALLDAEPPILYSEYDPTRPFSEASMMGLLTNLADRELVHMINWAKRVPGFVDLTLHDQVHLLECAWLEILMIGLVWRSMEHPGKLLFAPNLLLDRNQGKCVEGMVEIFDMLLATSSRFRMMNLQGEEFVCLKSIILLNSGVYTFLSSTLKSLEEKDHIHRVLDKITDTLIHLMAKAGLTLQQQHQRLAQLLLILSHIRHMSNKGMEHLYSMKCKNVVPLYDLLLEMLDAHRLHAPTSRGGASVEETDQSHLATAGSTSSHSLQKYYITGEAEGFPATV
Conditions: 4 h; for Total ER protein (%) / protein (%) ER: replicate
Experimental: Prior to NanoBiT Cell-Based Immunoassay, 50,000 cells were seeded in 160 µl of complete growth media per well of a 96-well plate and incubated overnight. […] If necessary, the cell culture media were replaced with serum-free media after the cells were stably adherent on the plate and incubated overnight. To treat cells with activators or inhibitors, medium was changed to 30 µl of medium containing inhibitors. If activation of a specific pathway is needed, the cells were stimulated with 10 µl of medium containing activators. To lyse the cells, 10 µl of lysis buffer containing 0.1% digitonin diluted in 1X immunoassay buffer with protease and phosphatase inhibitors was added and the plates were mixed vigorously for 20 min. Then, 50 µl of an antibody mix containing two primary antibodies against the target protein and NanoBiT detecting antibodies (0.3 µl each per well), diluted in 1X immunoassay buffer was added to the lysates. The plates were incubated at 23 °C for 90 min, followed by the addition of 25 µl of Nano-Glo® reagent consisting of Nano-Glo® Luciferase Assay Substrate mixed with 1X immunoassay buffer. Luminescence was measured using a plate-reading luminometer.
All 96-well assay plates were read using a GloMax® 96 Microplate Luminometer from Promega. The instrument was set to 0.5 s integration time. In order to obtain net change of signal, the reagent background values (signal from the well containing all reagent except primary antibodies) were subtracted from the sample values. To plot and analyze the data, Microsoft Excel and GraphPad Prism® Software were used. IC50 values were determined by using a nonlinear regression fit to a sigmoidal dose response (variable slope).

[1] = Fulvestrant 0.0976562 nM, MCF-7, Fig 7c
[2] = Fulvestrant 0.195312 nM, MCF-7, Fig 7c
[3] = Fulvestrant 0.390625 nM, MCF-7, Fig 7c
[4] = Fulvestrant 0.78125 nM, MCF-7, Fig 7c
[5] = Fulvestrant 1.5625 nM, MCF-7, Fig 7c
[6] = Fulvestrant 3.125 nM, MCF-7, Fig 7c
[7] = Fulvestrant 6.25 nM, MCF-7, Fig 7c
[8] = Fulvestrant 25 nM, MCF-7, Fig 7c
[9] = Fulvestrant 50 nM, MCF-7, Fig 7c
[10] = Fulvestrant 100 nM, MCF-7, Fig 7c

In the case of `C[C@]12CC[C@@H]3c4ccc(O)cc4C[C@@H](CCCCCCCCC[S+]([O-])CCCC(F)(F)C(F)(F)F)[C@H]3[C@@H]1CC[C@@H]2O` (some centres unmarked) [Fulvestrant], the “Average Total ER protein (%)” value (0.0976562 nM, MCF-7, Fig 7b) is reported as 100%, the “Raw data ER” value (0.0976562 nM, MCF-7, Fig 7b) is reported as 1203000 and 1328000 and the “Subtract reagent background ER” value (0.0976562 nM, MCF-7, Fig 7b) is reported as 1167700 and 974100 and 1096600. The “Total ER protein (%)” value (0.0976562 nM, MCF-7, Fig 7b) was 102.1% and 102.0%, the “Raw data ER” value (0.195312 nM, MCF-7, Fig 7b) was 1310000 and 1183000 and 1306000 and the “Subtract reagent background ER” value (0.195312 nM, MCF-7, Fig 7b) was 1076600 and 955300 and 1077400. The “Total ER protein (%)” value (0.195312 nM, MCF-7, Fig 7b) was 94.2% and 100.2%, the “Average Total ER protein (%)” value (0.390625 nM, MCF-7, Fig 7b) was 88% and the “Raw data ER” value (0.390625 nM, MCF-7, Fig 7b) was 1176000 and 1121000. The “Subtract reagent background ER” value (0.390625 nM, MCF-7, Fig 7b) was 945500 and 891700 and 1008700, the “Total ER protein (%)” value (0.390625 nM, MCF-7, Fig 7b) was 82.7% and 87.9% and 93.8% and the “Average Total ER protein (%)” value (0.78125 nM, MCF-7, Fig 7b) was 73%. For the same compound, the “Raw data ER” value (0.78125 nM, MCF-7, Fig 7b) was 1017000 and 962500 and 1057000, the “Subtract reagent background ER” value (0.78125 nM, MCF-7, Fig 7b) was 788000 and 733700 and 828700 and the “Total ER protein (%)” value (0.78125 nM, MCF-7, Fig 7b) was 68.9% and 72.3% and 77.1%. For the same compound, the “Average Total ER protein (%)” value (1.5625 nM, MCF-7, Fig 7b) was 52%, the “Raw data ER” value (1.5625 nM, MCF-7, Fig 7b) was 787000 and 772400 and 799700 and the “Subtract reagent background ER” value (1.5625 nM, MCF-7, Fig 7b) was 564400 and 548300 and 571400. The “Total ER protein (%)” value (1.5625 nM, MCF-7, Fig 7b) was 49.4% and 54.1% and 53.2%, the “Average Total ER protein (%)” value (3.125 nM, MCF-7, Fig 7b) was 36% and the “Raw data ER” value (3.125 nM, MCF-7, Fig 7b) was 594200 and 628300. For the same compound, the “Subtract reagent background ER” value (3.125 nM, MCF-7, Fig 7b) was 405200 and 370300 and 399100, the “Total ER protein (%)” value (3.125 nM, MCF-7, Fig 7b) was 35.4% and 36.5% and 37.1% and the “Average Total ER protein (%)” value (6.25 nM, MCF-7, Fig 7b) was 29%. The “Raw data ER” value (6.25 nM, MCF-7, Fig 7b) was 540300 and 521900, the “Subtract reagent background ER” value (6.25 nM, MCF-7, Fig 7b) was 294500 and 313200 and the “Total ER protein (%)” value (6.25 nM, MCF-7, Fig 7b) was 27.5% and 29.0% and 29.1%. The “Average Total ER protein (%)” value (25 nM, MCF-7, Fig 7b) was 23%, the “Raw data ER” value (25 nM, MCF-7, Fig 7b) was 474000 and 455500 and 481300 and the “Subtract reagent background ER” value (25 nM, MCF-7, Fig 7b) was 248500 and 229500 and 255100. The “Total ER protein (%)” value (25 nM, MCF-7, Fig 7b) was 21.7% and 22.6% and 23.7%, the “Average Total ER protein (%)” value (50 nM, MCF-7, Fig 7b) was 22% and the “Raw data ER” value (50 nM, MCF-7, Fig 7b) was 467500 and 453000 and 467700. The “Subtract reagent background ER” value (50 nM, MCF-7, Fig 7b) was 244000 and 227100 and 240600, the “Total ER protein (%)” value (50 nM, MCF-7, Fig 7b) was 21.3% and 22.4% and the “Average Total ER protein (%)” value (100 nM, MCF-7, Fig 7b) was 21%. For the same compound, the “Raw data ER” value (100 nM, MCF-7, Fig 7b) was 455900 and 441400 and 453000, the “Subtract reagent background ER” value (100 nM, MCF-7, Fig 7b) was 231900 and 220300 and 227600 and the “Total ER protein (%)” value (100 nM, MCF-7, Fig 7b) was 20.3% and 21.7% and 21.2%. The “Average ER protein (%)” value [1] was 104.6%, the “Raw data ER” value [1] was 1438000 and 1444000 and 1315000 and the “Subtract reagent background ER” value [1] was 1210700 and 1216700 and 1087700. For the same compound, the “protein (%) ER” value [1] was 106.1% and 108.4% and 99.4%, the “Average ER protein (%)” value [2] was 107.5% and the “Raw data ER” value [2] was 1431000 and 1445000 and 1414000. For the same compound, the “Subtract reagent background ER” value [2] was 1204100 and 1218100 and 1187100, the “protein (%) ER” value [2] was 105.5% and 108.5% and 108.4% and the “Average ER protein (%)” value [3] was 98.2%. The “Raw data ER” value [3] was 1290000 and 1346000 and 1340000, the “Subtract reagent background ER” value [3] was 1063550 and 1119550 and 1113550 and the “protein (%) ER” value [3] was 93.2% and 99.7% and 101.7%. The “Average ER protein (%)” value [4] was 82.3%, the “Raw data ER” value [4] was 1111000 and 1176000 and the “Subtract reagent background ER” value [4] was 884650 and 927650 and 949650. The “protein (%) ER” value [4] was 77.5% and 82.6% and 86.7%, the “Average ER protein (%)” value [5] was 59.5% and the “Raw data ER” value [5] was 890700 and 898000 and 891300. The “Subtract reagent background ER” value [5] was 663400 and 670700 and 664000, the “protein (%) ER” value [5] was 58.2% and 59.7% and 60.7% and the “Average ER protein (%)” value [6] was 41.1%. The “Raw data ER” value [6] was 677900 and 688400 and 691000, the “Subtract reagent background ER” value [6] was 452050 and 462550 and 465150 and the “protein (%) ER” value [6] was 39.6% and 41.2% and 42.5%. The “Average ER protein (%)” value [7] was 31.0%, the “Raw data ER” value [7] was 573300 and 576800 and 566100 and the “Subtract reagent background ER” value [7] was 351400 and 340700. For the same compound, the “protein (%) ER” value [7] was 30.5% and 31.3% and 31.1%, the “Average ER protein (%)” value [8] was 24.2% and the “Raw data ER” value [8] was 499600 and 500900 and 484100. For the same compound, the “Subtract reagent background ER” value [8] was 275200 and 276500 and 259700, the “protein (%) ER” value [8] was 24.1% and 24.6% and 23.7% and the “Average ER protein (%)” value [9] was 22.7%. For the same compound, the “Raw data ER” value [9] was 476500 and 482700 and 473700, the “Subtract reagent background ER” value [9] was 253450 and 259650 and 250650 and the “protein (%) ER” value [9] was 22.2% and 23.1% and 22.9%. For the same compound, the “Average ER protein (%)” value [10] was 20.4%, the “Raw data ER” value [10] was 453900 and 451400 and 438800 and the “Subtract reagent background ER” value [10] was 234150 and 231650 and 219050. For the same compound, the “protein (%) ER” value [10] was 20.5% and 20.6% and 20.0% and the “lowering of total ER protein level” value (MCF-7 cells, titration) was “over 80%”.
